# US12648941B2, “Piperidine urea derivatives for use as inotropic agents” (Helsinn Healthcare SA, priority 2021, dated 2026)
# “Also recorded” adds a separate entry of the source.
# Test system: Protein kinase A (PKA)
# Assay: PKA activity assay in cardiomyocytes (ELISA-based kit)
# Format: cell-based, mouse
# Conditions: isolated cardiomyocytes; 1 μM
# Procedure: AC01/HM01 was suspended in phosphate buffer saline solution (PBS: in mM: NaCl 137, KCl 7, Na2HPO4 10, KH2PO4 […]) and diluted to obtain 3 different concentrations: 0.2, 0.5 or 1 μM in Tyrode solution. We used a concentration range within 0.2-1 μM to ensure that the receptor was activated. […] Prior to contractility and Ca^2+ signaling measurements and biochemical assays, cardiomyocyte suspensions from SHAM and HF hearts were randomized to 3 types of treatments: vehicle, AC01/HM01, or D-Lys3-GHPR-6+AC01/HM01. The treatment with different agents occurred for 15 minutes at room temperature. Some cell suspension aliquots were flash frozen in liquid N2 and stored at −80° C. for later biochemistry analyses. All the experiments were conducted blinded regarding the treatment of cardiomyocytes.
# Elisa-based PKA kinase activity assay kit (ab139435, Abcam, Cambridge, UK) was employed to determine PKA activity in cardiomyocytes. Aliquots of frozen cardiomyocytes were thawed and mixed with a lysis buffer containing (mM) the following: 20 MOPS, 50 β-glycerolphosphate, 5 EGTA, 2 EDTA, 1 benzamidine, 1 sodium orthovanadate, 1% NP40, 1 DTT, complete protease inhibitor cocktail (Roche Diagnostics, West Sussex, UK) and phosphatase inhibitor cocktail 3 (Sigma, Gillingham, UK). Approximately 2 μg of protein of each sample were assayed according to the manufacturer's instructions 27.
smiles,measurement,value
"COc1ccc([C@H](C)NC(=O)N(C)[C@@H]2CCN(C)CC2(C)C)c(Cl)c1Cl.Cl [AC01/HM01, 1-[(1S)-1-(2,3-dichloro-4-methoxyphenyl)ethyl]-3-methyl-3-[(4R)-1-methyl-3,3-dimethyl-4-piperidyl]-urea]",PKA activity vs vehicle,decreased; also recorded: reduction of PKA activity
